Like-named read-outs stand apart in the source and are kept apart here.
Legend:
[1] = system: human prostate (LN-CapAp); experiment: cell viability, prostate LN-Cap; format: cell-based; details: Homo sapiens, LNCaP
Method: The effect of trifluoperazine and flupentixol was studied in two cell-lines of human prostate cancer: androgen dependent (LN-Cap) and androgen independent (PC-3).
(§1) Cyclic antidepressants at varying concentrations (between 10PM and 100 μM) was applied to neuroblastoma SH-SY5T, 3LL lung carcinoma, prostate (LN-CapAp), melanoma B16, and cell viability was determined as described above.

[2] = system: different cell-lines; experiment: mean IC50 over cell lines and therapeutic index
[3] = system: mouse Lewis lung carcinoma (3LL); experiment: in vivo effect on Lewis lung carcinoma (3LL) in mice; details: 3LL inoculated C57 mice, i.p. daily, thioridazine 15 mg/kg, others 30 mg/kg
Method: Female C57 black mice aged 4 weeks were used in order to evaluate the in vivo effect of cyclic psychotropic agents on tumor cells. In particular, animals were divided into 5 groups (6-8 mice each). Animals were inoculated with mouse Lewis lung carcinoma (3LL, 0.5 million each) by i.v. injection to the tail vein and then treated by i.p. injection daily for 3 weeks with the following different agents
(5) Paroxetine (30 mg/kg).
During the treatment period animals were inspected daily and their body weight registered twice a week. […] After the four weeks of treatment the mice were sacrificed and their lungs dissected and weighted.

[4] = system: mouse melanoma B16 MDR cells; experiment: cell viability, melanoma B16 MDR; format: cell-based
[5] = system: mouse lung sarcoma (3LL); experiment: cell viability, lung 3LL; format: cell-based; details: Mus musculus; Table 1B; read-out: Cell viability IC50 Lungs Sarcoma 3LL
Method: In another experiment the effect of clotiapine at the same concentrations on the viability of mouse lung carcinoma (3LL) cells was determined.
as §1

[6] = system: HaCat I5 keratinocytes; experiment: keratinocyte viability, Neutral red, HaCat I5; format: cell-based, human
Method: (§2) The drugs were administered at concentrations within the range of 5-100 μM and cell viability was measured 24 hr post-administration by Neutral red staining. The efficiency of the agents against viability of the cell lines was evaluated also by comparison with two commonly used anticancer agents (Doxorubicin and 5-fluorouracil (5-FU)) at equimolar concentrations.

[7] = system: HaCat II-4RT keratinocytes; experiment: keratinocyte viability, Neutral red, HaCat II4; format: cell-based; details: Homo sapiens
Method: as §2

[8] = system: human neuroblastoma (SH-SY5T); experiment: cell viability, neuroblastoma SH-SY5T; format: cell-based; details: for IC50: Homo sapiens
Method: The effect of paroxetine on primary tissue cultures was also evaluated. […] The viability of the cells after treatment with paroxetine was determined by neutral red (NR) technology 24 hr. post treatment.
as §1

[9] = system: HaCat keratinocytes; experiment: keratinocyte viability, Neutral red, HaCat; format: cell-based, human; details: for IC50: Homo sapiens, HaCaT
Method: as §2

[10] = system: mouse melanoma (B-16); experiment: cell viability, melanoma B16; format: cell-based; details: Mus musculus
Method: as §1

[11] = system: B16 melanoma cells; experiment: sensitization to doxorubicin, B16 melanoma cells; format: cell-based, mouse; details: B16 melanoma cells, FIG. 6D
[12] = system: human breast (MCF7); experiment: cell viability, breast MCF7; format: cell-based; details: Table 1A
[13] = system: rat new born myocytic culture; experiment: primary tissue culture, myocytic; format: cell-based; details: data not shown
[14] = system: Colon Ht-29; experiment: cell viability, colon Ht-29; format: cell-based; details: Homo sapiens, Table 1A
[15] = system: mouse-selected embryo, neuronal culture; experiment: primary tissue culture, neuronal; format: cell-based; details: data not shown
[16] = system: human neuroblastoma (SK-N-SH); experiment: cell viability (neutral red, Almar Blue, Hoechst dye), neuroblastoma SK-N-SH; format: cell-based; details: Homo sapiens, SK-N-SH; Table 1A
[17] = system: Neuroblastoma cell line (SK-NSH); experiment: apoptosis by flow cytometry of propidium iodide stained cells; format: cell-based, human; details: after 24 and 48 hours at 20 μM and higher; FIG. 7
Method: The percentage of apoptosis of the cells was determined by flow cytometry of propidium iodide stained cells using a fluorescence-activated cell sorter (FACScan) (Becton and Dickenson, Heidelberg, Calif.) equipped with an argon ion laser (an excitation wavelength, […]) and a doublet discrimination module (DDM). Lysis II (BD) software was used for data acquisition.

[18] = system: p53 mutant; experiment: p53 mutant expression, western blotting in glioma C6; format: cell-based, rat; details: 60 μM, FIG. 8
[19] = system: rat glioblastoma (C6); experiment: cell viability, glioma C6; format: cell-based; details: Rattus norvegicus; Table 1A
[20] = Homo sapiens, HaCaT, mean of the determinations, read-out: IC50 HaCat I5 ME
[21] = Homo sapiens, HaCaT, single determinations, read-out: IC50 HaCat I5

Fc1ccc([C@@H]2CCNC[C@H]2COc2ccc3c(c2)OCO3)cc1 [Paroxetine]
IC50 ([1]; Table 1B, read-out: Cell viability IC50 Prostate LN-Cap): 16 µM | IC50 ([2]; read-out: IC50 Mean +/− SD): 12.4 µM | survival rate during four weeks of treatment [3]: 5/6 | lungs weight / tumor size compared to control group ([3]; FIG. 5): effective in reducing tumor size | IC50 ([4]; B16, Example 9, FIG. 9, read-out: IC50 levels, transformed (MDR) B16 melanoma): 15 to 20 µM | IC50 ([4]; Table 1B, read-out: Cell viability IC50 Melanoma B16 MDR): 11 µM | IC50 [5]: < 10 µM | cell viability HaCat I5 (in words) ([6]; 5-100 μM, 24 hr, Neutral red, FIG. 13B, 15B): effective in reducing cell viability | IC50 [6, 20]: 21 µM | IC50 [6, 21]: 21 µM | IC50 [7]: 12 µM | sensitivity of neuroblastoma cells compared to primary tissue (viability) ([8]; 10 μM to 100 μM, neutral red, 24 hr post treatment, vs primary mouse brain and selected neurons, FIG. 1): increased sensitivity | IC50 ([8]; Table 1B, read-out: Cell viability IC50 Neuroblastoma SH-SY5T): 15 µM | cell viability HaCat (in words) ([9]; 5-100 μM, 24 hr, Neutral red, FIG. 13A, 15A): effective in reducing cell viability | IC50 ([10]; Example 9, read-out: IC50 levels, wild type B16 mouse melanoma): 15 to 20 µM | IC50 ([10]; Table 1B, read-out: Cell viability IC50 Melanoma 16B): 12 µM | potentiation of doxorubicin (in words) [11]: same effect

OCCN1CCN(CCCN2c3ccccc3Sc3ccc(Cl)cc32)CC1 [Perphenazine]
IC50 [12]: 21 µM | IC50 ([1]; Table 1A, read-out: Viability IC50 Prostate LN-Cap): 18 µM | IC50 [13]: 35 to 55 µM | IC50 [14]: 22 µM | IC50 ([2]; read-out: IC50 Mean ± SD): 20 ± 2.7 µM | IC50 [15]: 60 µM | IC50 [6, 20]: 26 µM | IC50 [6, 21]: 30 µM | IC50 ([6]; single determinations, read-out: IC50 HaCat I5): 22 µM | IC50 [16]: 21 µM | IC50 ([8]; Table 1A, read-out: Viability IC50 Neuroblastoma SH-SY5T): 15 µM | apoptosis (in words) [17]: mortal and dramatic apoptosis | IC50 ([9]; mean of the determinations, read-out: IC50 HaCat ME): 24 µM | IC50 ([9]; single determinations, read-out: IC50 HaCat): 24 µM | IC50 ([10]; Table 1A, read-out: Viability IC50 Melanoma B16): 23 µM | mean decrease in expression of p53 mutant [18]: 30% | IC50 [19]: 22 µM

From patent US20040029860A1, “Anti-proliferative drugs” (priority 2000, published 2004)
